≈ marks a conversion by molar mass, not a printed value. Like-named read-outs stand apart in the source and are kept apart here.
How the values were obtained:
Assay in all cases: MIC (Minimum Inhibitory Concentration)
Assay type in all cases: cell-based
Candida albicans = tested on: Candida albicans
Excerpt: (§1) In addition they may be used for combatting plant diseases, in particular as fungicides. A list of MIC (Minimum Inhibitory Concentration) values for a number of microorganisms is listed herebelow. The figures in the column headings refer to the compounds prepared according to the experimental examples in comparison with the spectrum of 1-[2-(2,4-dichlorophenyl)-2-{(2,4-dichlorophenyl)-methoxy} -ethyl7-1H-imidazole (better known under the name of miconazole, c.f. Merck Index 9th Ed. page 6047) or natamycin (pimaricin, c.f. Merck Index 9th Ed. page 7233).

Pasteurella multocida = Pasteurella multocida A 723; read-out: MIC values
Excerpt: as §1

[1] = tested on: Streptococcus haemolyticus; conditions: Streptococcus haemolyticus A 1088; read-out: MIC values
Excerpt: as §1

Trichophyton equinum = tested on: Trichophyton equinum
Excerpt: as §1

[2] = tested on: Trichophyton mentagrophytus
Excerpt: as §1

Trichophyton quickeaneum = Trichophyton quickeaneum A 2040; read-out: MIC values
Excerpt: as §1

Trichophyton rubrum = tested on: Trichophyton rubrum
Excerpt: as §1

[3] = tested on: Trichophyton schoenleinii; conditions: Trichophyton schoenleinii 435-63; read-out: MIC values
Excerpt: as §1

Trichophyton tonsurans = Trichophyton tonsurans 561-50; read-out: MIC values
Excerpt: as §1

Trichophyton verrucosum = tested on: Trichophyton verrucosum
Excerpt: as §1

Trichophyton violoceum = Trichophyton violoceum 442-62; read-out: MIC values
Excerpt: as §1

[4] = Candida albicans A 7, read-out: MIC values
[5] = Candida albicans A 3140, read-out: MIC values
[6] = Candida albicans A 3141, read-out: MIC values
[7] = Candida albicans A 3142, read-out: MIC values
[8] = Candida albicans A 3143, read-out: MIC values
[9] = Candida albicans A 3144, read-out: MIC values
[10] = Candida albicans A 3145, read-out: MIC values
[11] = Candida albicans A 3165, read-out: MIC values
[12] = Candida albicans A 3166, read-out: MIC values
[13] = Candida albicans A 3167, read-out: MIC values
[14] = Candida albicans A 3168, read-out: MIC values
[15] = Candida albicans A 3169, read-out: MIC values
[16] = Candida albicans A 3171, read-out: MIC values
[17] = Candida albicans A 3184, read-out: MIC values
[18] = Candida albicans A 3190, read-out: MIC values
[19] = Candida albicans A 3191, read-out: MIC values
[20] = Candida albicans A 3192, read-out: MIC values
[21] = Candida albicans A 3194, read-out: MIC values
[22] = Candida albicans A 3196, read-out: MIC values
[23] = Trichophyton equinum 182-76, read-out: MIC values
[24] = Trichophyton equinum 441-51, read-out: MIC values
[25] = Trichophyton mentagrophytus 367-68, read-out: MIC values
[26] = Trichophyton mentagrophytus 421-67, read-out: MIC values
[27] = Trichophyton mentagrophytus A 3252, read-out: MIC values
[28] = Trichophyton mentagrophytus R 177, read-out: MIC values
[29] = Trichophyton mentagrophytus R 178, read-out: MIC values
[30] = Trichophyton rubrum 218-65, read-out: MIC values
[31] = Trichophyton rubrum 494-62, read-out: MIC values
[32] = Trichophyton rubrum A 810, read-out: MIC values
[33] = Trichophyton verrucosum 134-66, read-out: MIC values
[34] = Trichophyton verrucosum A 2922, read-out: MIC values

Row | MIC (Candida albicans; [4]) [µg/mL] | MIC (Candida albicans; [5]) [µg/mL] | MIC (Candida albicans; [6]) [µg/mL] | MIC (Candida albicans; [7]) [µg/mL] | MIC (Candida albicans; [8]) [µg/mL] | MIC (Candida albicans; [9]) [µg/mL] | MIC (Candida albicans; [10]) [µg/mL] | MIC (Candida albicans; [11]) [µg/mL] | MIC (Candida albicans; [12]) [µg/mL] | MIC (Candida albicans; [13]) [µg/mL] | MIC (Candida albicans; [14]) [µg/mL] | MIC (Candida albicans; [15]) [µg/mL] | MIC (Candida albicans; [16]) [µg/mL] | MIC (Candida albicans; [17]) [µg/mL] | MIC (Candida albicans; [18]) [µg/mL] | MIC (Candida albicans; [19]) [µg/mL] | MIC (Candida albicans; [20]) [µg/mL] | MIC (Candida albicans; [21]) [µg/mL] | MIC (Candida albicans; [22]) [µg/mL] | MIC (Pasteurella multocida) [µg/mL] | SMILES | other results
1 | 0.75 (≈ 2.47 µM) | 1.5 (≈ 4.94 µM) | 1.5 (≈ 4.94 µM) | 1.5 (≈ 4.94 µM) | 1.5 (≈ 4.94 µM) | 1.5 (≈ 4.94 µM) | 3 (≈ 9.89 µM) | 1.5 (≈ 4.94 µM) | 1.5 (≈ 4.94 µM) | 1.5 (≈ 4.94 µM) | 3 (≈ 9.89 µM) | 1.5 (≈ 4.94 µM) | 1.5 (≈ 4.94 µM) | 1.5 (≈ 4.94 µM) | 1.5 (≈ 4.94 µM) | 3 (≈ 9.89 µM) | 1.5 (≈ 4.94 µM) | 3 (≈ 9.89 µM) | 1.5 (≈ 4.94 µM) | 3 (≈ 9.89 µM) | [C-]#[N+]C(=C(C)c1cccs1)S(=O)(=O)c1ccc(C)cc1 [Example 17, 1-isocyano-1-(4-toluenesulphonyl)-2-(2-thienyl)-1-propene] | MIC [1]: 6 µg/mL (≈ 19.8 µM); MIC (Trichophyton equinum; [23]): > 100 µg/mL; MIC (Trichophyton equinum; [24]): 0.75 µg/mL (≈ 2.47 µM); MIC [2, 25]: 100 µg/mL (≈ 330 µM); MIC [2, 26]: > 100 µg/mL; MIC [2, 27]: 6 µg/mL (≈ 19.8 µM); MIC [2, 28]: > 100 µg/mL; MIC [2, 29]: > 100 µg/mL; MIC (Trichophyton quickeaneum): 6 µg/mL (≈ 19.8 µM); MIC (Trichophyton rubrum; [30]): 6 µg/mL (≈ 19.8 µM); MIC (Trichophyton rubrum; [31]): 6 µg/mL (≈ 19.8 µM); MIC (Trichophyton rubrum; [32]): 12.5 µg/mL (≈ 41.2 µM); MIC [3]: 3 µg/mL (≈ 9.89 µM); MIC (Trichophyton tonsurans): < 0.4 µg/mL; MIC (Trichophyton verrucosum; [33]): 0.75 µg/mL (≈ 2.47 µM); MIC (Trichophyton verrucosum; [34]): 0.4 µg/mL (≈ 1.32 µM); MIC (Trichophyton violoceum): 3 µg/mL (≈ 9.89 µM)
2 | 6 (≈ 17.7 µM) | 6 (≈ 17.7 µM) | 6 (≈ 17.7 µM) | 6 (≈ 17.7 µM) | 6 (≈ 17.7 µM) | > 100 | 6 (≈ 17.7 µM) | 6 (≈ 17.7 µM) | 6 (≈ 17.7 µM) | 50 (≈ 147 µM) | 6 (≈ 17.7 µM) | 3 (≈ 8.84 µM) | 3 (≈ 8.84 µM) | 50 (≈ 147 µM) | 6 (≈ 17.7 µM) | > 100 | 6 (≈ 17.7 µM) | 6 (≈ 17.7 µM) | 100 (≈ 295 µM) | > 100 | [C-]#[N+]C(=C(CCCC)c1ccccc1)S(=O)(=O)c1ccc(C)cc1 [Example 19, 2-phenyl-1-isocyano-1-(4-toluenesulphonyl)-1-hexene] | MIC [1]: > 100 µg/mL; MIC (Trichophyton equinum; [23]): > 100 µg/mL; MIC (Trichophyton equinum; [24]): 3 µg/mL (≈ 8.84 µM); MIC [2, 25]: > 100 µg/mL; MIC [2, 26]: > 100 µg/mL; MIC [2, 27]: > 100 µg/mL; MIC [2, 28]: > 100 µg/mL; MIC [2, 29]: > 100 µg/mL; MIC (Trichophyton quickeaneum): > 100 µg/mL; MIC (Trichophyton rubrum; [30]): > 100 µg/mL; MIC (Trichophyton rubrum; [31]): > 100 µg/mL; MIC (Trichophyton rubrum; [32]): > 100 µg/mL; MIC [3]: > 100 µg/mL; MIC (Trichophyton tonsurans): 0.4 µg/mL (≈ 1.18 µM); MIC (Trichophyton verrucosum; [33]): 3 µg/mL (≈ 8.84 µM); MIC (Trichophyton verrucosum; [34]): 3 µg/mL (≈ 8.84 µM); MIC (Trichophyton violoceum): > 100 µg/mL
3 | 50 (≈ 144 µM) | 6 (≈ 17.3 µM) | 25 (≈ 71.9 µM) | 25 (≈ 71.9 µM) | 50 (≈ 144 µM) | 100 (≈ 288 µM) | 25 (≈ 71.9 µM) | 50 (≈ 144 µM) | 25 (≈ 71.9 µM) | > 100 | 100 (≈ 288 µM) | 25 (≈ 71.9 µM) | 50 (≈ 144 µM) | 50 (≈ 144 µM) | 50 (≈ 144 µM) | > 100 | 50 (≈ 144 µM) | 50 (≈ 144 µM) | 50 (≈ 144 µM) | 100 (≈ 288 µM) | [C-]#[N+]C(=C(CCCCC)CCCCC)S(=O)(=O)c1ccc(C)cc1 [Example 26, 1-isocyana-2-pentyl-1-(4-toluenesulphonyl)-1-heptene] | MIC [1]: > 100 µg/mL; MIC (Trichophyton equinum; [23]): > 100 µg/mL; MIC (Trichophyton equinum; Trichophyton equinum 856-71, read-out: MIC values): 50 µg/mL (≈ 144 µM); MIC [2, 25]: > 100 µg/mL; MIC [2, 26]: 100 µg/mL (≈ 288 µM); MIC [2, 27]: > 100 µg/mL; MIC [2, 28]: > 100 µg/mL; MIC [2, 29]: > 100 µg/mL; MIC ([2]; Trichophyton mentagrophytus RRL 305, read-out: MIC values): > 100 µg/mL; MIC (Trichophyton quickeaneum): > 100 µg/mL; MIC (Trichophyton rubrum; [30]): 100 µg/mL (≈ 288 µM); MIC (Trichophyton rubrum; [31]): 100 µg/mL (≈ 288 µM); MIC (Trichophyton rubrum; [32]): 50 µg/mL (≈ 144 µM); MIC [3]: 100 µg/mL (≈ 288 µM); MIC (Trichophyton tonsurans): 100 µg/mL (≈ 288 µM); MIC (Trichophyton violoceum): 100 µg/mL (≈ 288 µM)

Source: patent publication EP0007672A1, “Isocyanoalkenes, process and useful intermediates for their preparation, pharmaceutical and fungicidal preparations containing those isocyanoalkenes and the use of the fungicidal preparations in agriculture” (GIST-BROCADES N.V., priority 1978, dated 1980)
